Patent US20250241838A1, “COSMETIC COMPOSITION FOR WITH ANTI-GLYCATION EFFECT FOR ENHANCING SKIN RESISTANCE TO AGING” (L'OREAL, priority 2024, published 2025)
“Also recorded” adds a separate entry of the source. Like-named read-outs stand apart in the source and are kept apart here.

Tested on: BSA (bovine serum albumin)
Test: In vitro/in tubo glycation study: BSA + D-ribose, fluorescence intensity
Format: biochemical
Experimental: A study was conducted in vitro/in tubo to evaluate if the ingredients of the inventive composition have anti-glycation effects in an in tubo environment.
The in tubo experiments were conducted to evaluate glycation of BSA (bovine serum albumin) under control conditions and with exposure to an embodiment of the inventive composition. Samples were prepared, including inventives, comparatives, baseline, and positive and negative controls.
A test plate was prepared with discrete wells for receiving each of the test compositions. Solutions representing the active ingredient concentrations listed under “Ingredient” in Table 3, below, were added to a well containing BSA+D-ribose (the Indicator Solution) and PBS. The total amount of Test Solutions added for the inventive compositions was always the same for all tests-25 microliters-5 microliters of each Test Solution (Ingredient) per well. PBS was used as the solvent for the Test Solution. Plates were prepared in triplicate.
Tested Compositions: Blank: PBS+BSA, Negative control: PBS+BSA+D-ribose, Positive control: PBS+BSA+D-ribose+Aminoguanidine, Five Inventive […]
Samples were plated in triplicate and readings taken at the indicated wavelength at day 1 and day 14.
Evaluations of Fluorescent Intensity were made at ex 370 nm/em 440 nm
Samples were evaluated at time intervals of 0 days, 3 days, 14 Days, 21 Days. The main purpose of incorporating time intervals is to provide sufficient duration for capturing the anti-glycation effect. It is crucial to build in multiple time points to adequately capture the anti-glycation effects since they can vary depending on the specific ingredients used.
Magnitude of fluorescence intensity is positively indicative of extent of glycation. Glycation is expected to be maximal with negative control (BSA plus D-ribose), while glycation of positive control with known antiglycation agent, Aminoguanidine, is expected to be reduced relative to negative control.
Evaluation of anti-glycation effect of individual ingredients: each of Activated C, Dandelion Extract, Caffeine, Lavender Oil, and Vitamin E (5 microliter quantities) were plated with 245 microliter of [PBS+BSA+D-ribose]. Concentrations of each ingredient added to the wells were as follows Activated C (100%, 50%, 10%, 5% and 1%), Dandelion Extract (100%, 50%, 30%, 15% and 3%), Caffeine (2%, 1.5%, 1%, 0.5% and 0.1%), Lavender Oil (100%, 50%, 0.15%, 0.08% and 0.15%), and Vitamin E (100%, 50%, 1%, 0.5% and 0.1%).

[1] = each ingredient alone, 5 microliter plated with 245 microliter PBS+BSA+D-ribose, five concentrations each, data not shown

Compound: Cn1c(=O)c2c(ncn2C)n(C)c1=O [Caffeine]
- anti-glycation effect of individual ingredients: no glycation effect; also recorded: no significant reduction in glycation

Compound: N=C(N)NN [Positive control, Aminoguanidine]
- Fluorescence intensity (day 14 readings, ex 370 nm/em 440 nm, PBS+BSA+D-ribose, intensity positively indicative of extent of glycation): 2.921
- Percent reduction in glycation (%) (day 14 readings, relative to negative control (PBS+BSA+D-ribose)): 23%

Compound: tocopherol [Vitamin E]
- anti-glycation effect of individual ingredients [1]: no glycation effect
- anti-glycation effect of individual ingredients (each ingredient alone, 5 microliter plated with 245 microliter PBS+BSA+D-ribose, five concentrations each, data not shown, listed as vitamin E): no significant reduction in glycation

Compound: CCOC1=C(O)C(=O)O[C@@H]1[C@@H](O)CO [Activated C, 3-O-ETHYL ASCORBIC ACID]
- anti-glycation effect of individual ingredients [1]: glycation effect only at high levels
- anti-glycation effect of individual ingredients (each ingredient alone, 5 microliter plated with 245 microliter PBS+BSA+D-ribose, five concentrations each, data not shown, listed as Ascorbic acid): reduction of glycation at high doses only
